Experimental data as given in patent US6737383B1, “Herbicidal oxadiazolidines” (priority 1999, dated 2004).

Key:
[1] = system: bedstraw; experiment: Test B pre/postemergence bedstraw; format: in vivo, Galium aparine
Procedure, shortened: (§1)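 Response is a visual 0-to-10 score relative to untreated plants, where 0 means no effect and 10 means complete control, taken twelve to sixteen days after application. Treatments went onto soil at planting and onto foliage of 1- to 4-leaf plants, using a surfactant-containing non-phytotoxic solvent.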

[2] = system: blackgrass; experiment: Test B pre/postemergence blackgrass; format: in vivo, Alopecurus myosuroides
Procedure, shortened: as §1

[3] = system: surinam grass; experiment: Test B pre/postemergence surinam grass; format: in vivo, Brachiaria decumbens
Procedure, shortened: as §1

[4] = system: cocklebur; experiment: Test B pre/postemergence cocklebur; format: in vivo, Xanthium strumarium
Procedure, shortened: as §1

[5] = system: corn; experiment: Test B pre/postemergence corn; format: in vivo, Zea mays
Procedure, shortened: as §1

[6] = system: crabgrass; experiment: Test B pre/postemergence crabgrass; format: in vivo, Digitaria sanguinalis
Procedure, shortened: as §1

[7] = system: giant foxtail; experiment: Test B pre/postemergence giant foxtail; format: in vivo, Setaria faberii
Procedure, shortened: as §1

[8] = system: morningglory; experiment: Test B pre/postemergence morningglory; format: in vivo, Ipomoea hederacea
Procedure, shortened: as §1

[9] = system: pigweed; experiment: Test B pre/postemergence pigweed; format: in vivo, Amaranthus retroflexus
Procedure, shortened: as §1

[10] = system: rape; experiment: Test B pre/postemergence rape; format: in vivo, Brassica napus
Procedure, shortened: as §1

[11] = system: soybean; experiment: Test B pre/postemergence soybean; format: in vivo, Glycine max
Procedure, shortened: as §1

[12] = system: sugar beet; experiment: Test B pre/postemergence sugar beet; format: in vivo, Beta vulgaris
Procedure, shortened: as §1

[13] = system: velvetleaf; experiment: Test B pre/postemergence velvetleaf; format: in vivo, Abutilon theophrasti
Procedure, shortened: as §1

[14] = system: wheat; experiment: Test B pre/postemergence wheat; format: in vivo, Triticum aestivum
Procedure, shortened: as §1

[15] = system: wild oat; experiment: Test B pre/postemergence wild oat; format: in vivo, Avena fatua
Procedure, shortened: as §1

[16] = system: purple nutsedge; experiment: Test B pre/postemergence purple nutsedge; format: in vivo, Cyperus rotundus
Procedure, shortened: as §1

[17] = Postemergence, Rate 125 g/ha, scale of 0 to 10 where 0 is no effect and 10 is complete control
[18] = Preemergence, Rate 62 g/ha, scale of 0 to 10 where 0 is no effect and 10 is complete control
[19] = Preemergence, Rate 125 g/ha, scale of 0 to 10 where 0 is no effect and 10 is complete control
[20] = Preemergence, Rate 250 g/ha, scale 0 to 10 (0 no effect, 10 complete control)
[21] = Preemergence, Rate 500 g/ha, scale of 0 to 10 where 0 is no effect and 10 is complete control
[22] = Postemergence, Rate 62 g/ha, scale 0 to 10, 0 is no effect, 10 is complete control
[23] = Postemergence, Rate 250 g/ha, scale of 0 to 10, 0 is no effect, 10 is complete control
[24] = Postemergence, Rate 500 g/ha, scale of 0 to 10 where 0 is no effect and 10 is complete control

C=C(Cn1c(=O)on(C(=O)N(c2ccccc2)C(C)C)c1=O)C(C)(C)C [Compound 648]
7: Plant response rating, Crabgrass [6, 24]
8: Crabgrass plant response rating [6, 19]
3: Plant response rating, Giant foxtail [7, 24] | Redroot pigweed plant response rating [9, 17]
6: Plant response rating, Morningglory [8, 22]
9: Plant response rating, Crabgrass [6, 20] | Plant response rating, Crabgrass [6, 21] | Giant foxtail plant response rating [7, 19] | Plant response rating, Giant foxtail [7, 20] | Plant response rating, Giant foxtail [7, 21]
2: Plant response rating, Blackgrass [2, 20] | Plant response rating, Cocklebur [4, 24] | Plant response rating, Redroot pigweed [9, 21] | Plant response rating, Rape [10, 24] | Soybean plant response rating [11, 17]
0: Bedstraw plant response rating [1, 17] | Bedstraw plant response rating [1, 18] | Bedstraw plant response rating [1, 19] | Plant response rating, Bedstraw [1, 20] | Plant response rating, Bedstraw [1, 21] | Plant response rating, Blackgrass [2, 22] | Blackgrass plant response rating [2, 17] | Blackgrass plant response rating [2, 23] | Plant response rating, Blackgrass [2, 24] | Blackgrass plant response rating [2, 18] | Blackgrass plant response rating [2, 19] | Plant response rating, B. signalgrass [3, 22] | Plant response rating, B. signalgrass [3, 17] | B. signalgrass plant response rating [3, 23] | Plant response rating, B. signalgrass [3, 24] | B. signalgrass plant response rating [3, 18] | B. signalgrass plant response rating [3, 19] | Plant response rating, B. signalgrass [3, 20] | Plant response rating, Cocklebur [4, 22] | Cocklebur plant response rating [4, 17] | Cocklebur plant response rating [4, 23] | Cocklebur plant response rating [4, 18] | Cocklebur plant response rating [4, 19] | Plant response rating, Cocklebur [4, 21] | Plant response rating, Corn [5, 22] | Corn plant response rating [5, 17] | Corn plant response rating [5, 23] | Plant response rating, Corn [5, 24] | Corn plant response rating [5, 18] | Corn plant response rating [5, 19] | Plant response rating, Corn [5, 20] | Plant response rating, Corn [5, 21] | Plant response rating, Crabgrass [6, 22] | Crabgrass plant response rating [6, 17] | Crabgrass plant response rating [6, 23] | Crabgrass plant response rating [6, 18] | Plant response rating, Giant foxtail [7, 22] | Giant foxtail plant response rating [7, 17] | Giant foxtail plant response rating [7, 23] | Morningglory plant response rating [8, 18] | Morningglory plant response rating [8, 19] | Plant response rating, Morningglory [8, 20] | Plant response rating, Morningglory [8, 21] | Plant response rating, Redroot pigweed [9, 22] | Redroot pigweed plant response rating [9, 18] | Redroot pigweed plant response rating [9, 19] | Plant response rating, Redroot pigweed [9, 20] | Plant response rating, Rape [10, 22] | Rape plant response rating [10, 17] | Rape plant response rating [10, 18] | Rape plant response rating [10, 19] | Plant response rating, Rape [10, 20] | Plant response rating, Rape [10, 21] | Plant response rating, Soybean [11, 22] | Soybean plant response rating [11, 18] | Soybean plant response rating [11, 19] | Plant response rating, Soybean [11, 20] | Plant response rating, Soybean [11, 21] | Plant response rating, Sugarbeets [12, 22] | Sugarbeets plant response rating [12, 17] | Sugarbeets plant response rating [12, 18] | Sugarbeets plant response rating [12, 19] | Plant response rating, Sugarbeets [12, 20] | Plant response rating, Sugarbeets [12, 21] | Plant response rating, Velvetleaf [13, 22] | Velvetleaf plant response rating [13, 17] | Velvetleaf plant response rating [13, 18] | Velvetleaf plant response rating [13, 19] | Plant response rating, Velvetleaf [13, 20] | Plant response rating, Velvetleaf [13, 21] | Plant response rating, Wheat [14, 22] | Wheat plant response rating [14, 17] | Wheat plant response rating [14, 18] | Wheat plant response rating [14, 19] | Plant response rating, Wheat [14, 20] | Plant response rating, Wheat [14, 21] | Plant response rating, Wild oats [15, 22] | Wild oats plant response rating [15, 17] | Wild oats plant response rating [15, 18] | Wild oats plant response rating [15, 19] | Plant response rating, Wild oats [15, 20] | Plant response rating, Wild oats [15, 21] | Plant response rating, Nutsedge [16, 22] | Nutsedge plant response rating [16, 17] | Plant response rating, Nutsedge [16, 24] | Nutsedge plant response rating [16, 18] | Nutsedge plant response rating [16, 19] | Plant response rating, Nutsedge [16, 20] | Plant response rating, Nutsedge [16, 21]
10: Morningglory plant response rating [8, 17] | Morningglory plant response rating [8, 23] | Plant response rating, Morningglory [8, 24]
5: Plant response rating, Blackgrass [2, 21] | Plant response rating, B. signalgrass [3, 21] | Giant foxtail plant response rating [7, 18]
